Data set [1] is described as follows: Percent of unbound ligand in rat plasma. The class given is ADME, organism-based.
For data set [2], the species on record is Rattus norvegicus. Kind of data set: Unbound clearance in rat. The conditions noted are these: in vivo. The data set is classed as ADME, organism-based.
Data set [3] can be described thus: Intrinsic clearance in rat per 10^6 cells. The class given is ADME.
Data set [4] in a line: Clearance in rat. The conditions noted are these: in vivo. The class given is ADME, organism-based.
Data set [5] can be described thus: Solubility of the compound. The class given is physicochemical.
The nature of data set [6]: Clearance in dog. The class given is ADME, organism-based, Canis lupus familiaris. As to conditions: in vivo; call rule not given here.
The species entered for data set [7] is Rattus norvegicus. Kind of data set: Decrease in glucose level in Zucker rat by oral glucose tolerance test. The conditions noted are these: in vivo. The class given is ADME, organism-based.
Data set [8] is filed under the species Canis familiaris. Nature of the data set: Unbound clearance in dog. The data set is classed as ADME, organism-based, Canis lupus familiaris. The conditions noted are these: in vivo.
Data set [9] in a line: Bioavailability in rat. The class given is ADME, organism-based. The conditions noted are these: in vivo.
Data set [10] is described as follows: Bioavailability in dog. The class given is ADME, organism-based, Canis lupus familiaris. The conditions noted are these: in vivo.
A short description of data set [11]: Intrinsic clearance in dog per 10^6 cells. The data set is classed as ADME, Canis lupus familiaris. As to conditions: not recorded.
The target in data set [12] is T1, Hexokinase-4 (Homo sapiens, UniProt P35557).
T1 sequence (P35557 whole entry): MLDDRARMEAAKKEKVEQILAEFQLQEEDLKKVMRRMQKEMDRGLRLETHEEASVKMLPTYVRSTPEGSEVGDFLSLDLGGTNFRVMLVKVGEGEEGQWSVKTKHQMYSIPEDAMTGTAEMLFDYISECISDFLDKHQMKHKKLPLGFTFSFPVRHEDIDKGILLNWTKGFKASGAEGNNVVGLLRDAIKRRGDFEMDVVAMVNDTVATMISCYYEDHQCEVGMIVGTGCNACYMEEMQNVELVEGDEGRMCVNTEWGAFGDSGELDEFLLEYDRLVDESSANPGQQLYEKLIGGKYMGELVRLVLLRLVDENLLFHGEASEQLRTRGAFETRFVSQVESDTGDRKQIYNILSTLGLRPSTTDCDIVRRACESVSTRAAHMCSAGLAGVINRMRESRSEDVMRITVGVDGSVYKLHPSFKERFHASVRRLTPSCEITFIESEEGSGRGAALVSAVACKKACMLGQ
Description: Activation of glucokinase

Data set [13] relates to Rattus norvegicus. Nature of the data set: Decrease in glucose level in Zucker rat at 3 mg/kg, po by oral glucose tolerance test. The class given is ADME, organism-based. On the set-up: dose 3 mg/kg, route oral. As to conditions: in vivo.
For data set [14], the system named is Rattus norvegicus. Kind of data set: Decrease in glucose level in Zucker rat at 1 mg/kg, po by oral glucose tolerance test. The class given is ADME, organism-based. On the set-up: dose 1 mg/kg, route oral. As to conditions: in vivo.
The species named for data set [15] is Canis familiaris. Nature of the data set: Hepatic blood flow in dog. The class given is ADME, organism-based, Canis lupus familiaris, Liver.
Data set [16] is filed under the species Canis familiaris. Kind of data set: Clearance in dog measured as percent of hepatic blood flow. The data set is classed as ADME, organism-based, Canis lupus familiaris, Liver. As to conditions: in vivo.
For data set [17], the species on record is Rattus norvegicus. Kind of data set: Clearance in rat measured as percent of hepatic blood flow. The conditions noted are these: in vivo. The data set is classed as ADME, organism-based, Liver.
Data set [18] is described as follows: Percent of unbound ligand in dog plasma. The data set is classed as ADME, organism-based, Canis lupus familiaris.
The species named for data set [19] is Rattus norvegicus. Nature of the data set: Hepatic blood flow in rat. The data set is classed as ADME, organism-based, Liver.

Structures are written as SMILES. Converted amounts (≈) assume the structure as drawn. Where only a bound is given, the exact number is not on record here.

Consider `CC(C)Oc1cc(OCc2ccccc2)cc(C(=O)Nc2ccc(C(=O)O)cn2)c1`, for which, in data set [1], the fraction unbound amounted to 0.002. For the same molecule, the apparent clearance CL/F in data set [2] stood at 111 L/h/kg. Also, the intrinsic clearance (hepatocyte CLint) in data set [3] is below 1 µL/min/1e6 cells. In data set [4], this molecule came in with a clearance of 0.222 L/h/kg.

`COC[C@H](C)Oc1cc(O[C@@H](C)Cc2ccccc2)cc(C(=O)Nc2ccc(C(=O)O)cn2)c1` displayed a solubility in data set [5] of 1350 µM (≈ 627 µg/mL). The clearance in data set [6] was 0.264 L/h/kg. In addition, the Activity result in data set [7] is listed as “Dose-dependent effect”. Moreover, the values for the CL/F in data set [2] and in [8] were 28.5 L/h/kg and 18.1 L/h/kg, respectively. The figures for the bioavailability in data set [9] and in [10] were 99% and 100%, respectively. In addition, the hepatocyte CLint in data set [11] is below 1 µL/min/1e6 cells.

Regarding `CC(C)Oc1cc(O[C@@H](C)Cc2ccccc2)cc(C(=O)Nc2ccc(C(=O)O)cn2)c1`, in data set [5], the solubility is 8 µM (≈ 3.48 µg/mL). In [12], the EC50 is 0.02 µM. Moreover, in data set [2], the apparent clearance CL/F came to 86.1 L/h/kg. The bioavailability in data set [9] was found to be 85%. For the same molecule, the outcome in [13] was Active.

For the molecule `COC[C@@H](C)Oc1cc(OC(C)C)cc(C(=O)Nc2ccc(C(=O)O)cn2)c1`, the EC50 in [12] was 5.51 µM. The unbound share (fraction unbound) in data set [1] is 0.0622.

In the case of `CC(C)Oc1cc(O[C@H](C)c2ccccc2)cc(C(=O)Nc2ccc(C(=O)O)cn2)c1`, the concentration for a half-maximal effect (EC50) in [12] was 0.95 µM. Moreover, the free fraction (fraction unbound) in data set [1] came to 0.0048.

Take `COC[C@H](C)Oc1cc(OC(C)C)cc(C(=O)Nc2ccc(C(=O)O)cn2)c1`: in [5], the solubility was above 3140 µM. In [12], this molecule returned a concentration giving a half-maximal response (EC50) of 0.61 µM. The molecule also yielded an unbound share (fraction unbound) in data set [1] of 0.0534. Also, the CL/F in data set [2] came out at 2.58 L/h/kg. Moreover, the result in data set [14] was Active. The same molecule displayed a bioavailability in [9] of 100%. In addition, the clearance in data set [4] was 0.138 L/h/kg.

In data set [6], `CC(C)Oc1cc(OCCc2ccsc2)cc(C(=O)Nc2ccc(C(=O)O)cn2)c1` displayed a clearance of 0.522 L/h/kg. Besides, the results for the fraction unbound in [1] and in [18] were 0.0026 and 0.0064, respectively. For the same molecule, the apparent clearance (CL/F) was 87.66 L/h/kg in [2] and 81.54 L/h/kg in [8]. Further, the results for the Activity in [15] and in data set [19] were 1.86 L/h/kg and 4.32 L/h/kg, respectively. Moreover, the entries for the “%LBF” value in [16] and in data set [17] were 28% and 5.3%, respectively. For the same molecule, the hepatocyte CLint in data set [3] and in data set [11] was below 1 µL/min/1e6 cells each time.

As to `CC(C)Oc1cc(O[C@@H](C)c2ccccc2)cc(C(=O)Nc2ccc(C(=O)O)cn2)c1`, the EC50 in data set [12] was 0.11 µM. In data set [2], this molecule yielded an apparent clearance (CL/F) of 10.3 L/h/kg. In addition, in data set [3], the intrinsic clearance (hepatocyte CLint) is below 1 µL/min/1e6 cells.

`CC(C)Oc1cc(O[C@H](C)Cc2ccccc2)cc(C(=O)Nc2ccc(C(=O)O)cn2)c1`: the response in data set [12] was half-maximal at 0.09 µM (EC50). Moreover, in data set [1], the free fraction (fraction unbound) stood at 0.0023.

For orientation: fraction unbound means the share of the substance not bound to proteins or other matrix. For orientation: CL/F means clearance divided by bioavailability, as obtained after extravascular dosing. For orientation: hepatocyte CLint means a measure of how fast metabolising enzymes remove a compound, apart from limits set by blood flow. In general, clearance refers to the volume of plasma or blood freed of the substance per unit of time. One may read the solubility as the concentration that dissolves in the medium under given conditions. Higher therefore signals much dissolved substance. A word on the bioavailability: it is the share of a dose that reaches the circulation, judged against a reference dose that is usually intravenous. The term EC50 denotes the midpoint of the concentration-response curve. Read a high EC50 as a need for much substance.
